Data as given in US8481523B2, “Biocide composition comprising pyrithione and pyrrole derivatives” (Arch Chemicals, Inc., priority 2006, dated 2013).
Entries after “also recorded” stand apart in the source; their conditions may differ.

Tested on: barnacles
Assay: Paint efficacy testing: coated fiberglass rods suspended in the ocean, number of barnacles counted monthly
Format: in vivo
Conditions: paint formulations on rods in the ocean, Beaufort, N.C. coast, 2004
Procedure: A series of nine paint formulations containing 4-bromo-2-(4-chlorophenyl)-5-(trifluoromethyl)-1H-pyrrole-3-carbonitrile (referred to in below table as Pyrrole) and zinc pyrithione (ZPT) were tested by Duke University off the Beaufort, N.C. coast in 2004 for their antifouling effectiveness against barnacles and other fouling organisms. The formulations were created in the laboratory by the addition of various amounts of biocides to a resin base-formulation (vinyl resin/wood rosin with Zn oxide filler). Formulations include 4-bromo-2-(4-chlorophenyl)-5-(trifluoromethyl)-1H-pyrrole-3-carbonitrile alone and in combination with ZPT. A solvent based zinc oxide coating was used as a control. Unprimed fiberglass rods (8 mm diameter×11 cm length) were dip-coated with each formulation (5 rods/formulation) and suspended from a test rack in the ocean (one-meter below the surface). Rods were evaluated each month for number of barnacles and bryozoans. The most promising results came from the formulations in which 4-bromo-2-(4-chlorophenyl)-5-(trifluoromethyl)-1H-pyrrole-3-carbonitrile was blended with ZPT (See Table 1 below).

For `N#Cc1c(-c2ccc(Cl)cc2)[nH]c(C(F)(F)F)c1Br` [4-bromo-2-(4-chlorophenyl)-5-(trifluoromethyl)-1H-pyrrole-3-carbonitrile], the “antifouling effectiveness against barnacles and other fouling organisms (in words)” value was “effective antifouling agent for hard fouling organisms such as barnacles; also recorded: performs better with ZPT as a co-biocide than it does alone”.
